# Assay results: patent US5770691A, “Discriminatory substrates for MMP hydrolysis” (Regents of the University of Minnesota, priority 1995, dated 1998)
# Where a SMILES comes first, the peptide text is derived from it. [ ]: non-standard residue; d: D form. The star is where a group is joined. Dnp = O=[N+]([O-])c1ccc(*)c([N+](=O)[O-])c1; Mca = COc1ccc2c(CC(=O)*)cc(=O)oc2c1; Nva = CCC[C@H](N)C(=O)O
# Columns and labels:
# MMP-1 [1] = biological target: T1, MMP-1 (Homo sapiens, UniProt P03956); assay: Fluorometric hydrolysis of synthetic Mca/Lys(Dnp) substrates by MMP-1; assay type: biochemical; parameters: made in house; host or cells: native secreted protein purified from culture medium of human rheumatoid synovial cells
# T1 sequence (P03956 100-469): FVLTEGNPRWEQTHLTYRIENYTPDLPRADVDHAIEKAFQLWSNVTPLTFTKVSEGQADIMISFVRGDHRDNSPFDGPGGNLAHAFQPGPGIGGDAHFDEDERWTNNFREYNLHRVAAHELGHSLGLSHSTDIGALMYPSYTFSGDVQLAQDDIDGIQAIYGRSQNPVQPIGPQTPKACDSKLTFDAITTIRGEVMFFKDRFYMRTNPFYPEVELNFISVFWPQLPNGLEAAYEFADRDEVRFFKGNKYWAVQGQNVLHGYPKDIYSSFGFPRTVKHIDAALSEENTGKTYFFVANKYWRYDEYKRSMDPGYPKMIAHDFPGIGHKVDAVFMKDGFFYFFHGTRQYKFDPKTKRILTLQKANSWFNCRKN
# Excerpt: (§1) All MMPs were purified in zymogen form. ProMMP-1 (Suzuki et al., Biochem., 29, 10261 (1990)), proMMP-2 (Okada et al., Eur. J. Biochem., 194, 721 (1990)), and proMMP-3 (Ito et al., Arch. Biochem. Biophys., 267, 211 (1988)) were purified from the culture medium of human rheumatoid synovial cells stimulated with rabbit macrophage-conditioned medium. ProMMP-9 was purified from the culture medium of HT-1080 cells as described in Morodomi et al., Biochem. J., 285, 603 (1992). ProMMP-2 and proMMP-9 were activated by reacting with 1 mM 4-aminophenylmercuric acetate at 37° C. for 45 minutes and 32 hours, respectively. ProMMP-1 was activated by reacting with 1 mM 4-aminophenylmercuric acetate and an equimolar amount of MMP-3 at 37° C. for 6 hours. After activation, MMP-3 was completely removed from MMP-1 by affinity chromatography using an anti-MMP-3 IgG Affi-Gel 10 column. The resin, Affi-Gel 10 (Biorad, Emoryville, Calif.), was coupled to anti-MMP-3 IgG (Okada et al., Annals of Rheumat. Dis., 48, 645 (1989)) per the manufacturer's protocol. Pro-MMP-3 was activated by reacting with 5 μg/mL chymotrypsin at 37° C. for 2 hours. Chymotrypsin was inactivated with 2 mM diisopropylfluorophosphate. The amounts of active MMP-1, MMP-2, and MMP-3 were determined by titration with tissue inhibitor of metalloproteinase-1(TIMP1) over a concentration range of 0.1-3 μg/mL, while the amount of active MMP-9 was determined by titration with TIMP-2 (0.1-3 μg/mL). TIMP-1 was isolated from the medium of HT-1080 cells as described in Morodomi et al., Biochem J., 285, 603 (1992).
# (§2) Substrates were prepared as 10 mM stock solutions in dimethylsulfoxide (DMSO). Fluorescent assays were performed at λex =325 nm and λem =393 nm, which should encounter no interference from Trp residues, using a Hitachi fluorescence spectrophotometer F-3010. Initial total hydrolysis assays were run at a substrate concentration of […] to avoid filtering effects. The change in fluorescence at this concentration was 110 based on total hydrolysis of 1 μM substrate. A typical assay was carried out by incubating 100 μL of various concentrations of a substrate with 10 μL of an enzyme solution (2-20 nM) in 50 mM Tris-HCl, pH 7.5, 0.15M NaCl, 10 mM CaCl2, 0.05% Brij 35, 0.02% NaN3. The reaction was stopped by addition of 900 μl of 3% (v/v) glacial acetic acid. MMP-3 activity at pH 6.0 was measured in 50 mM sodium acetate buffer, pH 6.0, instead of Tris-HCl buffer. The amount of substrate hydrolysis was calculated based on the fluorescence values of the Mca-Arg-Pro-Lys-Pro-Gln standard solution after substraction of the reaction blank value (stopping solution added before the enzyme). Individual kinetic parameters (kcat and KM) were determined over a substrate concentration range of 2.5-75 μM and calculated by double reciprocal plots.
# MMP-3 [2] = biological target: T2, MMP-3 (Homo sapiens, UniProt P08254); assay: Fluorometric hydrolysis of synthetic Mca/Lys(Dnp) substrates by MMP-3; assay type: biochemical; parameters: made in house; host or cells: native secreted protein purified from culture medium of human rheumatoid synovial cells; conditions: for kcat /Km: pH 7.5
# Excerpt: as §1, §2
# Target sequence in this assay (P08254 100-477): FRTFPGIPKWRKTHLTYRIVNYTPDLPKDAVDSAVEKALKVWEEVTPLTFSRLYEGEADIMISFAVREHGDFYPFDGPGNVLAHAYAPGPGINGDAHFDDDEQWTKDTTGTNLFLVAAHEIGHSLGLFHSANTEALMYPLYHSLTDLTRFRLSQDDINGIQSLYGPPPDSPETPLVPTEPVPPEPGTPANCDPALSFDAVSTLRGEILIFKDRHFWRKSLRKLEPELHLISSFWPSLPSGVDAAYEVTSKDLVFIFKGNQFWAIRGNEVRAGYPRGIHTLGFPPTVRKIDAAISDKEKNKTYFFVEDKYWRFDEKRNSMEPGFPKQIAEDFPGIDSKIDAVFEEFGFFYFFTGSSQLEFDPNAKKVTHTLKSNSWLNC
# MMP-9 [3] = biological target: T3, MMP-9 (Homo sapiens, UniProt P14780); assay: Fluorometric hydrolysis of synthetic Mca/Lys(Dnp) substrates by MMP-9; assay type: biochemical; parameters: made in house; host or cells: native secreted protein purified from culture medium of HT-1080 cells; conditions: Edman degradation analysis after 36-72 hour treatment of substrate with MMP
# Target sequence in this assay (P14780 107-707 limits assumed): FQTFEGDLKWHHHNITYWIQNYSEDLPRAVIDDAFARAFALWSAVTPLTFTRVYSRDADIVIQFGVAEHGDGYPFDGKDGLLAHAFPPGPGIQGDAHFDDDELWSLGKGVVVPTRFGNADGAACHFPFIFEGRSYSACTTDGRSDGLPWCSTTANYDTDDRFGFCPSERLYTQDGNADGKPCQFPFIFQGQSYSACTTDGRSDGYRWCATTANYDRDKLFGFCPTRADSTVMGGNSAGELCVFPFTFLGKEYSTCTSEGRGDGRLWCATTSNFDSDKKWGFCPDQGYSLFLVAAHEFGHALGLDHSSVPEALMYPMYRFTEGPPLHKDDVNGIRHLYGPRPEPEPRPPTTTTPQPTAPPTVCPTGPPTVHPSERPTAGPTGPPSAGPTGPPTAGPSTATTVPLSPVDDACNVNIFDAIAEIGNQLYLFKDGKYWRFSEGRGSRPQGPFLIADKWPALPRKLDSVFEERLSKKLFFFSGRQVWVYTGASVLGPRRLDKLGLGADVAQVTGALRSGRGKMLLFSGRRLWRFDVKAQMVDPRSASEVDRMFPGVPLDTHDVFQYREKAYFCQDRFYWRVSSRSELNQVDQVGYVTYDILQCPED
# MMP-3 [4] = biological target: T2, MMP-3; assay: Fluorometric hydrolysis of synthetic Mca/Lys(Dnp) substrates by MMP-3; assay type: biochemical; parameters: made in house; host or cells: native secreted protein purified from culture medium of human rheumatoid synovial cells; conditions: Edman degradation analysis after 36-72 hour treatment of substrate with MMP
# Target sequence in this assay (P08254 100-477): as the sequence (P08254 100-477) above
# MMP-2 [5] = biological target: T4, MMP-2 (Homo sapiens, UniProt P08253); assay: Fluorometric hydrolysis of synthetic Mca/Lys(Dnp) substrates by MMP-2; assay type: biochemical; parameters: made in house; host or cells: native secreted protein purified from culture medium of human rheumatoid synovial cells
# T4 sequence (P08253 110-660): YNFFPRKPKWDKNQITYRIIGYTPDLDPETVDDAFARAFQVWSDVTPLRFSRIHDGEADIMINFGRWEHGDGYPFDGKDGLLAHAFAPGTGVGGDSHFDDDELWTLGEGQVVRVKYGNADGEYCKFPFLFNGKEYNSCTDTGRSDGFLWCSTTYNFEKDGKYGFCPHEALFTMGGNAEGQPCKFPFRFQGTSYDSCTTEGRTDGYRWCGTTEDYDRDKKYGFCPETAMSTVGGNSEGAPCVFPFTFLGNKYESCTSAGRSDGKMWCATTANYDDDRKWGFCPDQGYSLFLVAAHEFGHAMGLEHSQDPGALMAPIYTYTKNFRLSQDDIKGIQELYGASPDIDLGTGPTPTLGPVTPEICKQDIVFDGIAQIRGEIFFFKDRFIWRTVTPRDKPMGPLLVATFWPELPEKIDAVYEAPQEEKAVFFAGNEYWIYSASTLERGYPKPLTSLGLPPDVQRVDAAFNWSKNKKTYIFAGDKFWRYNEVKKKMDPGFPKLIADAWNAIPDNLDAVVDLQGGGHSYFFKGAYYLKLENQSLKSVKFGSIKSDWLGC
# Excerpt: as §1, §2
# MMP-9 [6] = biological target: T3, MMP-9; assay: Fluorometric hydrolysis of synthetic Mca/Lys(Dnp) substrates by MMP-9; assay type: biochemical; parameters: made in house; host or cells: native secreted protein purified from culture medium of HT-1080 cells
# Excerpt: as §1, §2
# Target sequence in this assay (P14780 107-707 limits assumed): as the sequence (P14780 107-707 limits assumed) above
# Solubility of substrate = assay type: physicochemical; conditions: 2.5% DMSO in water; read-out: soluble up to a concentration
# MMP-1 [7] = biological target: T1, MMP-1; conditions: background, literature; cited from earlier work
# MMP-9 [8] = biological target: T3, MMP-9; conditions: background, literature; cited from earlier work
# Target sequence in this assay (P14780 94-707, species assumed): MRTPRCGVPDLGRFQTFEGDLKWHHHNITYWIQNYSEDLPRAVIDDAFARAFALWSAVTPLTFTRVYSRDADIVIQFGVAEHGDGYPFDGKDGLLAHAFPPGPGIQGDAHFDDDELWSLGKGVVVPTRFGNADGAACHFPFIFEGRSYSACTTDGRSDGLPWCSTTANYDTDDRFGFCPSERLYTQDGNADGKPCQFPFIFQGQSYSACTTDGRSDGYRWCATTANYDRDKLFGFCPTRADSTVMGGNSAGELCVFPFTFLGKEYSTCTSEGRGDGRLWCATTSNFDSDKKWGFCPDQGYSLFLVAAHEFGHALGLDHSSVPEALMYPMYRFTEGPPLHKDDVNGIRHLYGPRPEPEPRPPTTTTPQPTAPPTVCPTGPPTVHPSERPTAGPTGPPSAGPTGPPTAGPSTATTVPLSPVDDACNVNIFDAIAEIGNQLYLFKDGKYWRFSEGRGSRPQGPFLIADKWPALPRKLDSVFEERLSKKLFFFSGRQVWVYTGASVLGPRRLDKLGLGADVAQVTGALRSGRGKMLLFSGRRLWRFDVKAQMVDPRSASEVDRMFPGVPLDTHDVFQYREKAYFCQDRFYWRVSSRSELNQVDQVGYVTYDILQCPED
# MMP-2 [9] = biological target: T4, MMP-2; conditions: background, literature; cited from earlier work
# MMP-7 = biological target: T5, MMP-7 (Homo sapiens, UniProt P09237); conditions: background, literature; cited from earlier work
# T5 sequence (P09237 95-267): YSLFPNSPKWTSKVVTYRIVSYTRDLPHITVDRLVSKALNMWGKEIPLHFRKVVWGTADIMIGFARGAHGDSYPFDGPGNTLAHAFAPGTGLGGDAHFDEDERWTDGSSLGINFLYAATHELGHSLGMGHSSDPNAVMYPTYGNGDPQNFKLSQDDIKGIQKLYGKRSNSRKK
# MMP-3 [10] = biological target: T2, MMP-3; conditions: cited from earlier work; for kcat Km: MMP-3, assay at 37° C.; for hydrolyzed by MMP-3: background, literature
# Target sequence in this assay (P08254 100-477, species assumed): as the sequence (P08254 100-477) above
Molecule,hydrolyzed by MMP-1 (MMP-1 [7]),hydrolyzed by MMP-2 (MMP-2 [9]),hydrolyzed by MMP-7 (MMP-7),kcat Km (MMP-3 [10]),hydrolyzed by MMP-3 (MMP-3 [10]),also measured
"CCC[C@H](NC(=O)[C@H](CCC(=O)O)NC(=O)[C@@H](NC(=O)[C@@H]1CCCN1C(=O)[C@H](CCCCN)NC(=O)[C@@H]1CCCN1C(=O)[C@H](CCCNC(=N)N)NC(=O)Cc1cc(=O)oc2cc(OC)ccc12)C(C)C)C(=O)N[C@@H](Cc1c[nH]c2ccccc12)C(=O)N[C@@H](CCCNC(=N)N)C(=O)N[C@@H](CCCCNc1ccc([N+](=O)[O-])cc1[N+](=O)[O-])C(N)=O [NFF-3, Mca-Arg-Pro-Lys-Pro-Val-Glu-Nva-Trp-Arg-Lys(Dnp)-NH2] (Mca-RPKPVE[Nva]WRK(Dnp)-NH2)",–,–,–,–,–,"hydrolysis by MMP-1 (MMP-1 [1]): not hydrolyzed; kcat /Km (MMP-3 [2]; MMP-3, 25° C.): 65,700 S^-1 M^-1; kcat /Km (MMP-3 [2]; MMP-3, 37° C.): 218,000 S^-1 M^-1; hydrolysis by MMP-3 (MMP-3 [2]; comparison of synthetic substrates): most rapidly hydrolyzed fluorogenic MMP-3 substrate yet described; hydrolyzed faster than NFF-2 by MMP-3 (MMP-3 [2]; rate relative to NFF-2): 3.7 times; site of hydrolysis by MMP-9 (MMP-9 [3]): multiple sites; site of hydrolysis by MMP-3 (MMP-3 [4]): Glu--Nva bond; hydrolysis by MMP-2 (MMP-2 [5]): not hydrolyzed; hydrolysis by MMP-9 (MMP-9 [6]): very slowly hydrolyzed; solubility (Solubility of substrate): ≥ 250 µM"
Dnp-Pro-Cha-Gly-Cys(CH3)-His-Ala-Lys(Nma)-NH2,hydrolyzed,–,–,–,–,hydrolyzed by MMP-9 (MMP-9 [8]): hydrolyzed
Dnp-Pro-Leu-Gly-Leu-Trp-Ala-D-Arg-NH2 (Dnp-PLGLWA[dR]-NH2; SMILES CC(C)C[C@H](NC(=O)CNC(=O)[C@H](CC(C)C)NC(=O)[C@@H]1CCCN1c1ccc([N+](=O)[O-])cc1[N+](=O)[O-])C(=O)N[C@@H](Cc1c[nH]c2ccccc12)C(=O)N[C@@H](C)C(=O)N[C@H](CCCNC(=N)N)C(N)=O) [literature fluorogenic MMP substrate],hydrolyzed,hydrolyzed,hydrolyzed,"2,200 S^-1 M^-1",hydrolyzed,–
"Mca--Pro--Leu--Gly""--""Leu--Dpa--Ala--Arg--NH2",hydrolyzed,hydrolyzed,hydrolyzed,"23,000 S^-1 M^-1",hydrolyzed,–
